Measurements taken from patent publication US20130273207A1, “Calcium Fortifying Composition for Strength, a Hydration Supplement, and Process for Preparing the Same” (priority 2010, published 2013).
Where two headings read alike, the source gives them in different places.

How the values were obtained:
[1] = Calcium available to human body (bioavailability) from Ca products; settings: consumption 1000 mg of product
Text: Bioavailability of Calcium Lactate Gluconate: the effectiveness of the nutrient depends on its bioavailability, which means how well the human body absorbs and utilizes it for various functions occurring in the body. On an average, about 10 to 30% of the total calcium is only get absorbed from a mixed diet by healthy adults. Many different factors influence this level of availability, one being the type of salt providing calcium. […] Calcium Lactate Gluconate is primarily used in applications where solubility and clarity are important.

Solubility in water = settings: RDA of calcium equals 800 mg per day in the EU
[2] = cited from earlier work
[3] = cited from earlier work; for % bioavailability of Ca out of inorganic Ca: consumption 1000 mg of product; for Bioavailability (in words): human and animal studies
women = settings: over 4,000 women, calcium in drinking water; cited from earlier work
[4] = cited from earlier work; remark: listed apart in the source

CC(O)C(=O)[O-].O=C([O-])[C@H](O)[C@@H](O)[C@H](O)[C@H](O)CO.[Ca+2] [CLG, Calcium Lactate Gluconate]
Total Ca absorbed by the body (mg) [1]: Max.
% of RDA in 100 ml (Solubility in water): 650%
Solubility (in words) [2]: High solubility (the most soluble forms of organic Ca)
Solubility [g Ca/L water] ([2]; water): 52 g Ca/L water
Solubility [g/L water] ([2]; water): 400 g/L water
Solubility [g/L water] ([2]; water, listed as Calcium Lactate Gluconate): approx. 400 g/L water
% bioavailability of Ca out of inorganic Ca [3]: High*
Bioavailability (in words) [3]: highly bioavailable
Bioavailability (in words) ([3]; listed as Ca lactate gluconate): Excellent bioavailability. (maintains that solubility during transit through the small intestine, during which time it is exposed to passive diffusion sites, therefore maximizing Ca absorption).

O=C([O-])[O-].[Ca+2] [Ca Carbonate, calcium carbonate]
Total Ca absorbed by the body [1]: 40 mg
% bioavailability of Ca out of inorganic Ca [3]: 10%

O=C([O-])CC(O)(CC(=O)[O-])C(=O)[O-].O=C([O-])CC(O)(CC(=O)[O-])C(=O)[O-].[Ca+2].[Ca+2].[Ca+2] [Ca Citrate]
% bioavailability of Ca out of inorganic Ca [3]: 50%

[Ca+2] [Calcium]
bone density (women): associated with an increase in their bone density
Validation: risk of toxicity (in words) ([4]; 60 mg per liter): No risk of toxicity
Safe Intake level ([4]; Source: Expert group of vitamins & Minerals, UK - 2003): 1500 mg
doses that might induce some gastrointestinal side effects in some individuals ([4]; human trials): indicate that higher doses (of 2500 mg
supplemental Ca with no adverse effect ([4]; in vivo): 1500 mg per day
total calcium absorbed from a mixed diet ([3]; healthy adults, on an average): 10 to 30%

[Cu] [Copper]
Safe Intake level ([4]; in vivo): 10 mg
safe upper limit ([4]; in vivo): limit of 10 mg/day in a 60 kg adult

[Ca+2] [Ionic Ca (Ca^++), Ionic Ca]
% bioavailability of Ca out of inorganic Ca [3]: 100%

CC(O)C(=O)[O-].CC(O)C(=O)[O-].[Ca+2] (stereo not shown) [calcium lactate]
Total Ca absorbed by the body [1]: 122 mg
% bioavailability of Ca out of inorganic Ca [3]: 33%

calcium phosphate [Ca Phosphate]
Total Ca absorbed by the body [1]: 39 mg
% bioavailability of Ca out of inorganic Ca [3]: 10%
